{
  "source": "patent US5565437A",
  "about": "“2',3'-dideoxy-2'-fluoro-purine nucleosides and methods for using same” (priority 1992, dated 1996)",
  "key": {"[1]": {"conditions": "relative to adenosine; cited from earlier work"}, "[2]": {"assay": "Acid-catalyzed decomposition / stability in acid, 37° C., HPLC", "type": "physicochemical", "method": "In order to study acid-catalyzed decomposition of the subject compounds, a pH 1 buffer was prepared by dissolving 0.746 g KCl and 26.8 g 1.0N HCl in sufficient distilled water to give 200 ml total volume. Ten ml of buffer, prewarmed to 37° C., was added to 102 micrograms of ddA (Compound I), and 93 micrograms of each compounds II or III, 2',3'-dideoxy-2'-alpha-flourodeminine or 2'-beta-flouro-2',3'-dideoxyadenosine. The samples were shaken and maintained at 37° C. Aliquots were taken at timed intervals and neutralized immediately with 0.1 NaOH and chilled on ice. The amounts of ddA and the fluorinated analogs were determined by HPLC analysis using a 4.6×250 mm […] Ultrasphere ODS column protected by a guard column packed with 37-50 micron Vydac 201SC. Elution was with 12% acetonitrile in 0.01 M pH 6.8 phosphate buffer at 1.0 ml/minute. The integrator peak areas were plotted as a function of time, and the data was fitted to a first order decomposition curve by a computer program (MLAB)."}, "[3]": {"system": "human immunodeficiency virus (HIV)", "conditions": "background statement; cited from earlier work"}, "[4]": {"system": "human immunodeficiency virus (HIV; HTLV-IIIB virus) in ATH8 cells", "assay": "HIV cytopathic assay using ATH8 cells (protection against the cytopathic effect of HIV)", "type": "cell-based", "method": "To test the cytopathic effect of the compounds of the present invention, HIV cytopathic assay was performed using ATH8 cells as described by Mitsuya et al., Proc. Nat. Acad. Sci. USA, 83, 1911 (1986). In brief, 2×10^5 ATH8 cells were preexposed to polybrene, exposed to HTLV-IIIB virus (2000 virus particles/cell) for 45 minutes after treatment with polybrene, resuspended in 1 ml of culture medium containing Interleukin 2 in the presence or absence of various concentrations of compounds, and incubated in culture tubes at 37° C. in 5% CO2 /95% air humidified atmosphere. Control cells were treated similarly but were not exposed to the virus. At various times on days 5 to 7 of culture, the total viable cells were counted in a hemocytometer by the trypan blue dye exclusion method. In the HIV cytopathic effect assay using ATH8 cells, 0.5 to 5 virus particles per cell represent the minimum cytopathic dose of the virus."}, "adenosine deaminase": {"system": "adenosine deaminase", "assay": "Metabolism by adenosine deaminase in the body", "type": "in vitro ADME"}, "HIV": {"system": "HIV", "conditions": "background statement; cited from earlier work"}},
  "data": [
    {"compound": "Nc1ncnc2c1ncn2[C@H]1CC[C@@H](CO)O1", "note": "[Compound I, 2',3'dideoxyadenosine]", "values": [
      {"measurement": "rate of acid-catalyzed hydrolysis of the glycosidic bond, times faster than adenosine", "setting": "[1]", "result": "40,000 times"},
      {"measurement": "half-life", "setting": "[2]; ph 1 kcl/hcl buffer, pH 1.0, 37° C. (FIG. 3)", "result": 35, "unit": "s"},
      {"measurement": "in vitro activity against HIV", "setting": "[3]", "result": "potent in vitro activity"}
    ]},
    {"compound": "Nc1ncnc2c1ncn2[C@@H]1O[C@H](CO)C[C@H]1F", "note": "[Compound II, 2',3'-dideoxy-2'-alpha-flouroadenosine]", "values": [
      {"measurement": "stability to acid-catalyzed decomposition", "setting": "[2]; pH 2, 37° C. (FIG. 2)", "result": "stable to acid-catalyzed decomposition"}
    ]},
    {"compound": "Nc1ncnc2c1ncn2[C@@H]1O[C@H](CO)C[C@@H]1F", "note": "[Compound III, 2',3'-dideoxy-2'-beta-fluoroadenosine]", "values": [
      {"measurement": "durability of the antiviral effect, compared with the parent compound I", "setting": "[4]; compared with compound I (ddA)", "result": "as durable as that of the parent compound"},
      {"measurement": "activity and potency in protecting ATH8 cells against the cytopathic effect of HIV, compared with ddA", "setting": "[4]; substantial viral excess, FIG. 1", "result": "approximately as active and potent as ddA"},
      {"measurement": "change after exposure to acidic conditions", "setting": "[2]; 24 hour exposure, pH 1 (FIG. 3)", "result": "completely unchanged"},
      {"measurement": "metabolism by adenosine deaminase", "setting": "adenosine deaminase", "result": "metabolism of 2',3'-dideoxy-2'-beta-fluoroadenosine to compound IV"}
    ]},
    {"compound": "Cc1ccc(C(=O)Nc2ccc(S(=O)(=O)O)c3cc(S(=O)(=O)O)cc(S(=O)(=O)O)c23)cc1NC(=O)c1cccc(NC(=O)Nc2cccc(C(=O)Nc3cc(C(=O)Nc4ccc(S(=O)(=O)O)c5cc(S(=O)(=O)O)cc(S(=O)(=O)O)c45)ccc3C)c2)c1", "note": "[suramin]", "values": [
      {"measurement": "HIV replication in the presence of compound", "setting": "HIV", "result": "considerably slower"}
    ]},
    {"compound": "antimoniotungstate", "values": [
      {"measurement": "HIV replication in the presence of compound", "setting": "HIV", "result": "considerably slower"}
    ]}
  ]
}
